Assay results reported in patent US10882860B2, “Treatment of osteoarthritis” (Samumed, LLC, priority 2015, dated 2021).
Marks after values point to notes of the source that are not given here.

How the values were obtained:
[1] = tested on: moderate-to-severe symptomatic knee OA subjects; experiment: Phase 1 MRI and radiograph study (bone marrow edema, cartilage thickness, joint space width); type: in vivo, human; conditions: for Bone Marrow Edema [N(%)]: Baseline Diffuse, Week 12 Diffuse / Bone Marrow Edema [N(%)]: Baseline Diffuse, Week 12 Focal / Bone Marrow Edema [N(%)]: Baseline Diffuse, Week 12 None / Bone Marrow Edema [N(%)]: Baseline Focal, Week 12 Diffuse / Bone Marrow Edema [N(%)]: Baseline Focal, Week 12 Focal / Bone Marrow Edema [N(%)]: Baseline Focal, Week 12 None / Bone Marrow Edema [N(%)]: Baseline None, Week 12 Diffuse / Bone Marrow Edema [N(%)]: Baseline None, Week 12 Focal / Bone Marrow Edema [N(%)]: Baseline None, Week 12 None: MRI; for change from baseline in joint space width (radiograph): Week 24
Description: To assess the safety and efficacy of the compound of Formula (I) (Form 1), magnetic resonance imaging (MM) was used. Safety evaluations included assessment of bone marrow edema by Mill. MM was used to document changes from baseline in total cartilage volume and thickness in the compartments of the target knee joint. Imaging results (safety and exploratory outcomes) in the Phase 1 study are described above.
Knee MRIs were obtained with a 16 channel knee coil on a 3.0T MRI machine using a standard diagnostic protocol (resolution 0.1-0.4 mm). MM scans were collected at the baseline visit (which could occur ≤28 days prior to study injection) and again at Weeks 12 and 24. The sponsor was unblinded after Week 12 for each cohort; site investigators remained blinded.
An exploratory analysis of change in imaging outcomes was conducted using repeated measures analysis of covariance (ANCOVA) adjusting for baseline in the Intention-to-Treat (ITT) population.
As a safety assessment, MRI scans were used to monitor the presence of focal or diffuse bone marrow edema (BME) in all subjects.
Average cartilage thickness over covered subchondral bone was reported for the following four compartments: medial femoral condyles, lateral femoral condyles, medial tibial plateaus, and lateral tibial plateaus.
FIG. 27 depicts the MRI of a knee joint. To determine average cartilage thickness, the cartilage thickness between the subchondral bone area (400 and 404) and the articular cartilage surface (402 and 406) was measured at numerous (˜400-2000) locations in both directions in the parts covered by cartilage (cAB) and averaged. Measurements were performed in three dimensions. Additionally, the average of the lowest 1% of cartilage thickness was also reported for all 4 compartments. The total for both average thickness and lowest thickness were derived by summing each of the 4 compartments' observations.
Radiographs of the target knee were taken during the screening period and at Week 24 to document change from baseline in joint space width (JSW). Table 52 depicts joint space width as measured by radiography for three dosing cohorts and a placebo group.

[2] = tested on: moderate-to-severe symptomatic knee OA subjects; experiment: Phase 1 clinical study: biomarkers (COMP, βCTX, P1NP); type: in vivo, human
Description: The study was a first-in-human, multicenter, 24-week, placebo-controlled, single-dose, dose-escalation safety study of a Wnt pathway inhibitor in subjects suffering from moderate to severe symptomatic knee OA. The sample size was 20 subjects (randomized 4:1, 16 active: 4 placebo) per dosing cohort. Inclusion criteria included: Age, 50-75 years; Western Ontario and McMaster Universities Arthritis Index (WOMAC) Total score, 36-72 (out of 96); Kellgren-Lawrence grade, 2 or 3; and a willingness to omit pain medication for 24 hours prior to pain assessments. Exclusion criteria included: BMI>40; and treatment with IA steroids within 2 months or HA derivatives within 6 months prior to injection. A full list of the inclusion and exclusion criteria for this study can be found on clinicaltrials.gov (NCT02095548).
The dosing sequence included suspension compositions of either 0.03 mg, 0.07 mg, or 0.23 mg of the compound of Formula (I) (Form 1) per 2 mL injection in a vehicle containing 0.5% carboxymethylcellulose sodium and 0.05% polysorbate 80 in pH 7.4 phosphate buffered saline. The placebo contained only the diluent of 0.5% carboxymethylcellulose sodium and 0.05% polysorbate 80 in pH 7.4 phosphate buffered saline. The subjects were given a single, intra-articular injection in the target knee on Treatment Day 1 and participated in a follow-up period of 24 weeks.
Safety, pharmacokinetics (PK), biomarker, and efficacy data were collected at baseline and during the 24-week follow-up period. Safety data included adverse events (AEs), concomitant medications, clinical laboratory sampling, medical history, vital signs, ECGs, hip bone density (DXA) analysis, qCT of the target knee, and evaluation of bone edema via MM. For PK data, samples were collected 0, 4, and 24 hours post dose, and at Weeks 4 and 12. Biomarker data included data for procollagen type 1 N-propeptide (P1NP), beta C-terminal telopeptide of type 1 collagen (βCTX), and cartilage oligomeric matrix protein (COMP). Efficacy data included measurements of WOMAC Total score, WOMAC Function and Pain subscores, pain VAS, Physician Global Assessment of Disease Activity, MM, and radiographs. Efficacy assessments were used to determine the percentage of OMERACT-OARSI “strict” responders. Exploratory analyses of efficacy outcomes were conducted using a baseline-adjusted repeated measures analysis of covariance (ANCOVA) in the Intention-to-Treat (ITT) population. The sponsor was unblinded after Week 12 for each cohort; site investigators remained blinded. All AEs reported in this study were […]. Investigator opinion regarding whether AEs were related to the compound of Formula (I) was also collected for informational purposes.

CC(C)CC(=O)Nc1cncc(-c2ccc3[nH]nc(-c4nc5c(-c6cccc(F)c6)cncc5[nH]4)c3c2)c1 [compound of Formula (I)]
Bone Marrow Edema [N(%)]: Baseline Diffuse, Week 12 Diffuse ([1]; 0.03 mg cohort): 1 (6%) N(%)
Bone Marrow Edema [N(%)]: Baseline Diffuse, Week 12 Focal ([1]; 0.03 mg cohort): 1 (6%) N(%)
Bone Marrow Edema [N(%)]: Baseline Diffuse, Week 12 None ([1]; 0.03 mg cohort): 0 N(%)
Bone Marrow Edema [N(%)]: Baseline Focal, Week 12 Diffuse ([1]; 0.03 mg cohort): 0 N(%)
Bone Marrow Edema [N(%)]: Baseline Focal, Week 12 Focal ([1]; 0.03 mg cohort): 4 (25%) N(%)
Bone Marrow Edema [N(%)]: Baseline Focal, Week 12 None ([1]; 0.03 mg cohort): 0 N(%)
Bone Marrow Edema [N(%)]: Baseline None, Week 12 Diffuse ([1]; 0.03 mg cohort): 0 N(%)
Bone Marrow Edema [N(%)]: Baseline None, Week 12 Focal ([1]; 0.03 mg cohort): 1 (6%) N(%)
Bone Marrow Edema [N(%)]: Baseline None, Week 12 None ([1]; 0.03 mg cohort): 9 (57%) N(%)
Joint space width by radiograph, Week 24 (mm) Actual [Mean (SD)] ([1]; 0.03 mg cohort, N 15): 4.50 (1.72) mm
Joint space width by radiograph, Week 24 (mm) Change from baseline [Mean (SD)] ([1]; 0.03 mg cohort, N 15): 0.00 (0.69) mm
Mean cartilage thickness by MRI, Week 12 (mm) Actual [Mean (SD)] ([1]; 0.03 mg cohort, N 16): 5.38 (1.19) mm
Mean cartilage thickness by MRI, Week 12 (mm) Change from baseline [Mean (SD)] ([1]; 0.03 mg cohort, N 16): −0.06 (0.39) mm
Mean thinnest cartilage by MRI, Week 12 (mm) Actual [Mean (SD)] ([1]; 0.03 mg cohort, N 16): 3.84 (1.57) mm
Mean thinnest cartilage by MRI, Week 12 (mm) Change from baseline [Mean (SD)] ([1]; 0.03 mg cohort, N 16): 0.11 (0.37) mm
area of mean thinnest cartilage by MRI ([1]; 0.03 mg cohort, Week 12): possible trend towards increase
change from baseline in joint space width (radiograph) ([1]; 0.03 mg cohort): no change
Bone Marrow Edema [N(%)]: Baseline Diffuse, Week 12 Diffuse ([1]; 0.07 mg cohort): 0 N(%)
Bone Marrow Edema [N(%)]: Baseline Diffuse, Week 12 Focal ([1]; 0.07 mg cohort): 1 (6%) N(%)
Bone Marrow Edema [N(%)]: Baseline Diffuse, Week 12 None ([1]; 0.07 mg cohort): 0 N(%)
Bone Marrow Edema [N(%)]: Baseline Focal, Week 12 Diffuse ([1]; 0.07 mg cohort): 0 N(%)
Bone Marrow Edema [N(%)]: Baseline Focal, Week 12 Focal ([1]; 0.07 mg cohort): 1 (6%) N(%)
Bone Marrow Edema [N(%)]: Baseline Focal, Week 12 None ([1]; 0.07 mg cohort): 1 (6%) N(%)
Bone Marrow Edema [N(%)]: Baseline None, Week 12 Diffuse ([1]; 0.07 mg cohort): 0 N(%)
Bone Marrow Edema [N(%)]: Baseline None, Week 12 Focal ([1]; 0.07 mg cohort): 2 (13%) N(%)
Bone Marrow Edema [N(%)]: Baseline None, Week 12 None ([1]; 0.07 mg cohort): 11 (69%) N(%)
Joint space width by radiograph, Week 24 (mm) Actual [Mean (SD)] ([1]; 0.07 mg cohort, N 14): 4.16 (1.64) mm
Joint space width by radiograph, Week 24 (mm) Change from baseline [Mean (SD)] ([1]; 0.07 mg cohort, N 14, p = 0.006 versus placebo): 0.59 (0.66)* mm
Mean cartilage thickness by MRI, Week 12 (mm) Actual [Mean (SD)] ([1]; 0.07 mg cohort, N 16): 5.37 (0.71) mm
Mean cartilage thickness by MRI, Week 12 (mm) Change from baseline [Mean (SD)] ([1]; 0.07 mg cohort, N 16): −0.02 (0.25) mm
Mean thinnest cartilage by MRI, Week 12 (mm) Actual [Mean (SD)] ([1]; 0.07 mg cohort, N 16): 3.88 (1.39) mm
Mean thinnest cartilage by MRI, Week 12 (mm) Change from baseline [Mean (SD)] ([1]; 0.07 mg cohort, N 16): 0.10 (0.55) mm
area of mean thinnest cartilage by MRI ([1]; 0.07 mg cohort, Week 12): possible trend towards increase
change from baseline in joint space width (radiograph) ([1]; 0.07 mg cohort): increase
Bone Marrow Edema [N(%)]: Baseline Diffuse, Week 12 Diffuse ([1]; 0.23 mg cohort): 2 (13%) N(%)
Bone Marrow Edema [N(%)]: Baseline Diffuse, Week 12 Focal ([1]; 0.23 mg cohort): 0 N(%)
Bone Marrow Edema [N(%)]: Baseline Diffuse, Week 12 None ([1]; 0.23 mg cohort): 0 N(%)
Bone Marrow Edema [N(%)]: Baseline Focal, Week 12 Diffuse ([1]; 0.23 mg cohort): 0 N(%)
Bone Marrow Edema [N(%)]: Baseline Focal, Week 12 Focal ([1]; 0.23 mg cohort): 8 (50%) N(%)
Bone Marrow Edema [N(%)]: Baseline Focal, Week 12 None ([1]; 0.23 mg cohort): 1 (6%) N(%)
Bone Marrow Edema [N(%)]: Baseline None, Week 12 Diffuse ([1]; 0.23 mg cohort): 0 N(%)
Bone Marrow Edema [N(%)]: Baseline None, Week 12 Focal ([1]; 0.23 mg cohort): 1 (6%) N(%)
Bone Marrow Edema [N(%)]: Baseline None, Week 12 None ([1]; 0.23 mg cohort): 4 (25%) N(%)
Mean cartilage thickness by MRI, Week 12 (mm) Actual [Mean (SD)] ([1]; 0.23 mg cohort, N 15): 5.32 (1.03) mm
Mean cartilage thickness by MRI, Week 12 (mm) Change from baseline [Mean (SD)] ([1]; 0.23 mg cohort, N 15): −0.04 (0.24) mm
Mean thinnest cartilage by MRI, Week 12 (mm) Actual [Mean (SD)] ([1]; 0.23 mg cohort, N 15): 3.01 (1.27) mm
Mean thinnest cartilage by MRI, Week 12 (mm) Change from baseline [Mean (SD)] ([1]; 0.23 mg cohort, N 15): −0.13 (0.30) mm
Joint space width by radiograph, Week 24 (mm) Actual [Mean (SD)] ([1]; 0.23 mg cohort, N 16): 3.47 (1.68) mm
Joint space width by radiograph, Week 24 (mm) Change from baseline [Mean (SD)] ([1]; 0.23 mg cohort, N 16): −0.15 (1.07) mm
change from baseline in joint space width (radiograph) ([1]; 0.23 mg cohort): decrease
exploratory imaging results, dose comparison ([1]; 0.23 mg dose vs 0.03 mg and 0.07 mg doses): less effective
effect on bone marrow edema compared to Placebo ([1]; single IA injection, interim): no appreciable effect
mean cartilage thickness by MRI ([1]; treated subjects, Week 12): no substantial degradation
subjects with improved BME results (focal to none and diffuse to focal) ([1]; treatment groups, baseline to Week 12): 4
change in COMP ([2]; 0.03 mg cohort): no significant changes
reduction in cartilage oligomeric matrix protein (COMP) ([2]; 0.07 mg cohort, Week 12, P=0.001): 130 ng/mL
change in COMP ([2]; 0.23 mg cohort): no significant changes
change in βCTX or P1NP ([2]; any treatment group): no significant changes
